Test results: US11634396B2 (priority 2021, dated 2023)

These compounds were tested against human mOR (Homo sapiens (Human), UniProt P35372) (assay: cell-based). Details: not given.
human mOR, sequence (P35372 whole entry): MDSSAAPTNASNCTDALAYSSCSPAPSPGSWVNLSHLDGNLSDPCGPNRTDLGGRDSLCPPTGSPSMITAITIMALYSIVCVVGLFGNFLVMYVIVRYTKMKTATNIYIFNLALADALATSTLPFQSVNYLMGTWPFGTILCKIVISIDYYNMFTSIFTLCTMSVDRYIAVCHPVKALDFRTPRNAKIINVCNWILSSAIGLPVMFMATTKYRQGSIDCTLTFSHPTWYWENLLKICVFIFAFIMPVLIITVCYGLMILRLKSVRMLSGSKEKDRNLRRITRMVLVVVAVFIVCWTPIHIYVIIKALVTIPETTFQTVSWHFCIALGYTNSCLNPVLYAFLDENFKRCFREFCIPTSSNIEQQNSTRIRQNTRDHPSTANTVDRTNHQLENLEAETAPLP

`Cc1ccc([C@@H](CC(=O)NC[C@H](Cc2ccc3[nH]ncc3c2)N(C)C)C2(C(F)(F)F)CC2)cn1` [Compound 211, (R)-N-((S)-2-(dimethylamino)-3-(1H-indazol-5-yl)propyl)-3-(6-methylpyridin-3-yl)-3-(1-(trifluoromethyl)cyclopropyl)propanamide] and `CN(C)[C@H](CNC(=O)C[C@H](c1cccnc1)C1(C(F)(F)F)CC1)Cc1ccc2[nH]ncc2c1` [Compound 213, (R)-N-((S)-2-(dimethylamino)-3-(1H-indazol-5-yl)propyl)-3-(pyridin-3-yl)-3-(1-(trifluoromethyl)cyclopropyl)propanamide] cannot be ordered by IC50: under 300 nM for the first, under 300 nM for the second.

`CN(C)[C@H](CNC(=O)C[C@H](c1cccnc1)C1(C(F)(F)F)CC1)Cc1cc(F)c2[nH]ncc2c1` [Compound 230, (R)-N-((S)-2-(dimethylamino)-3-(7-fluoro-1H-indazol-5-yl)propyl)-3-(pyridin-3-yl)-3-(1-(trifluoromethyl)cyclopropyl)propanamide] and `Cc1cc(C[C@@H](CNC(=O)C[C@H](c2cccnc2)C2(C(F)(F)F)CC2)N(C)C)cc2cn[nH]c12` [Compound 231, (R)-N-((S)-2-(dimethylamino)-3-(7-methyl-1H-indazol-5-yl)propyl)-3-(pyridin-3-yl)-3-(1-(trifluoromethyl)cyclopropyl)propanamide; bis(trifluoroacetic acid)] cannot be ordered by IC50: under 300 nM for the first, under 300 nM for the second.

First: CN(C)[C@H](CNC(=O)C[C@H](c1cccnc1)C1(C(F)(F)F)CC1)Cc1ccc2cn[nH]c2c1 [Compound 232, (R)-N-((S)-2-(dimethylamino)-3-(1H-indazol-6-yl)propyl)-3-(pyridin-3-yl)-3-(1-(trifluoromethyl)cyclopropyl)propanamide]
Second: CN(C)[C@H](CNC(=O)C[C@H](c1cccnc1)C1(C(F)(F)F)CC1)Cc1cc2cn[nH]c2cc1Cl [Compound 235, (R)-N-((S)-3-(6-chloro-1H-indazol-5-yl)-2-(dimethylamino)propyl)-3-(pyridin-3-yl)-3-(1-(trifluoromethyl)cyclopropyl)propanamide]
The IC50 of the first is higher: 300 to 3000 nM for the first, under 300 nM for the second.

`CN(C)[C@H](CNC(=O)C[C@H](c1cccnc1)C1(C(F)(F)F)CC1)Cc1cc(F)c(O)cc1F` [Compound 238, (R)-N-((S)-3-(2,5-difluoro-4-hydroxyphenyl)-2-(dimethylamino)propyl)-3-(pyridin-3-yl)-3-(1-(trifluoromethyl)cyclopropyl)propanamide] and `CN(C)[C@H](CNC(=O)C[C@H](c1cccnc1)C1(C(F)(F)F)CC1)Cc1ccc(O)c(F)c1Cl` [Compound 257, (R)-N-((S)-3-(2-chloro-3-fluoro-4-hydroxyphenyl)-2-(dimethylamino)propyl)-3-(pyridin-3-yl)-3-(1-(trifluoromethyl)cyclopropyl)propanamide] cannot be ordered by IC50: under 300 nM for the first, under 300 nM for the second.

`CN(C)[C@H](CNC(=O)C[C@H](c1ccncc1)C1CC1)Cc1c(F)cc(O)cc1F` [Compound 239, (S)-3-cyclopropyl-N-((S)-3-(2,6-difluoro-4-hydroxyphenyl)-2-(dimethylamino)propyl)-3-(pyridin-4-yl)propanamide] and `CN(C)[C@H](CNC(=O)C[C@H](c1ccncc1)C1CC1)Cc1ccc(O)c(F)c1Cl` [Compound 258, (S)-N-((S)-3-(2-chloro-3-fluoro-4-hydroxyphenyl)-2-(dimethylamino)propyl)-3-cyclopropyl-3-(pyridin-4-yl)propanamide] cannot be ordered by IC50: under 300 nM for the first, under 300 nM for the second.

`Cc1cc(O)cc(C)c1C[C@@H](CNC(=O)C[C@H](CC1CC1)c1cccnc1)N(C)C` [Compound 241, (S)-4-cyclopropyl-N-((S)-2-(dimethylamino)-3-(4-hydroxy-2,6-dimethylphenyl)propyl)-3-(pyridin-3-yl)butanamide] and `Cc1cc(O)cc(C)c1C[C@@H](CNC(=O)C[C@H](c1cccnc1)C1(C(F)(F)F)CC1)N(C)C` [Compound 242, (R)-N-((S)-2-(dimethylamino)-3-(4-hydroxy-2,6-dimethylphenyl)propyl)-3-(pyridin-3-yl)-3-(1-(trifluoromethyl)cyclopropyl)propanamide] cannot be ordered by IC50: under 300 nM for the first, under 300 nM for the second.

`Cc1cc(O)cc(C)c1C[C@@H](CNC(=O)C[C@@H](c1cccnc1)C1(C(F)(F)F)CC1)N(C)C` [Compound 243, (S)-N-((S)-2-(dimethylamino)-3-(4-hydroxy-2,6-dimethylphenyl)propyl)-3-(pyridin-3-yl)-3-(1-(trifluoromethyl)cyclopropyl)propanamide] and `Cc1cc(O)cc(C)c1C[C@@H](CNC(=O)C[C@H](c1cncc(Cl)c1)C1(C(F)(F)F)CC1)N(C)C` [Compound 245, (R)-3-(5-chloropyridin-3-yl)-N-((S)-2-(dimethylamino)-3-(4-hydroxy-2,6-dimethylphenyl)propyl)-3-(1-(trifluoromethyl)cyclopropyl)propanamide] cannot be ordered by IC50: under 300 nM for the first, under 300 nM for the second.

`COc1ccc(C(CC(=O)NC[C@H](Cc2c(C)cc(O)cc2C)N(C)C)C2(C(F)(F)F)CC2)cn1` (stereo partly drawn) [Compound 244, N-((S)-2-(dimethylamino)-3-(4-hydroxy-2,6-dimethylphenyl)propyl)-3-(6-methoxypyridin-3-yl)-3-(1-(trifluoromethyl)cyclopropyl) propanamide] and `Cc1cc(O)cc(C)c1C[C@@H](CNC(=O)CC(c1ccc(C(F)(F)F)nc1)C1(C(F)(F)F)CC1)N(C)C` (stereo partly drawn) [Compound 249, N-((S)-2-(dimethylamino)-3-(4-hydroxy-2,6-dimethylphenyl)propyl)-3-(1-(trifluoromethyl)cyclopropyl)-3-(6-(trifluoromethyl)pyridin-3-yl)propanamide] cannot be ordered by IC50: under 300 nM for the first, under 300 nM for the second.

`Cc1cc(O)cc(C)c1C[C@@H](CNC(=O)CC(c1ncc(Cl)cn1)C1(C(F)(F)F)CC1)N(C)C` (stereo partly drawn) [Compound 246, 3-(5-chloropyrimidin-2-yl)-N-((S)-2-(dimethylamino)-3-(4-hydroxy-2,6-dimethylphenyl)propyl)-3-(1-(trifluoromethyl)cyclopropyl)propanamide] and `Cc1cc(O)cc(C)c1C[C@@H](CNC(=O)CC(c1cncc(F)c1)C1(C(F)(F)F)CC1)N(C)C` (stereo partly drawn) [Compound 247, N-((S)-2-(dimethylamino)-3-(4-hydroxy-2,6-dimethylphenyl)propyl)-3-(5-fluoropyridin-3-yl)-3-(1-(trifluoromethyl)cyclopropyl)propanamide] cannot be ordered by IC50: under 300 nM for the first, under 300 nM for the second.

`CC[C@H](CC(=O)NC[C@H](Cc1c(C)cc(O)cc1C)N(C)C)c1cnc(C)s1` [Compound 252, (R)-N-((S)-2-(dimethylamino)-3-(4-hydroxy-2,6-dimethylphenyl)propyl)-3-(2-methylthiazol-5-yl)pentanamide] and `Cc1ncc([C@@H](CC(=O)NC[C@H](Cc2c(C)cc(O)cc2C)N(C)C)C2CC2)s1` [Compound 253, (S)-3-cyclopropyl-N-((S)-2-(dimethylamino)-3-(4-hydroxy-2,6-dimethylphenyl)propyl)-3-(2-methylthiazol-5-yl)propanamide] cannot be ordered by IC50: under 300 nM for the first, under 300 nM for the second.

`Cc1ncc(C(CC(=O)NC[C@H](Cc2c(C)cc(O)cc2C)N(C)C)C2CC2)s1` (stereo partly drawn) [Compound 254, (S)-3-cyclopropyl-N-((S)-2-(dimethylamino)-3-(4-hydroxy-2,6-dimethylphenyl)propyl)-3-(2-methylthiazol-5-yl)propanamide] and `CN(C)[C@H](CNC(=O)C[C@H](CC1CC1)c1ccncc1)Cc1ccc(O)cc1Cl` [Compound 260, (S)-N-((S)-3-(2-chloro-4-hydroxyphenyl)-2-(dimethylamino)propyl)-4-cyclopropyl-3-(pyridin-4-yl)butanamide] cannot be ordered by IC50: under 300 nM for the first, under 300 nM for the second.

Going from `CN(C)[C@H](CNC(=O)C[C@H](c1cccnc1)C1(C)CC1)Cc1ccc(O)cc1C(F)(F)F` [Compound 256, (S)-N-((S)-2-(dimethylamino)-3-(4-hydroxy-2-(trifluoromethyl)phenyl)propyl)-3-(1-methylcyclopropyl)-3-(pyridin-3-yl)propanamide] to `COc1ccc(C[C@@H](CNC(=O)C[C@H](c2cccnc2)C2(C(F)(F)F)CC2)N(C)C)c(Cl)c1F` [Compound 259, (R)-N-((S)-3-(2-chloro-3-fluoro-4-methoxyphenyl)-2-(dimethylamino)propyl)-3-(pyridin-3-yl)-3-(1-(trifluoromethyl)cyclopropyl)propanamide], the IC50 rises from under 300 nM to over 3000 nM. The first is the more potent here.

Same assay, conditions: CHO Tag-lite human mOR stable cell line; forskolin 4 μM and DAMGO at EC90; read-out: mOR cAMP Antagonist Assay IC50

Compared with `CN(C)[C@H](CNC(=O)C[C@@H](CC1CC1)c1cccnc1)Cc1ccc2[nH]ncc2c1` [Compound 212, (R)-4-cyclopropyl-N-((S)-2-(dimethylamino)-3-(1H-indazol-5-yl)propyl)-3-(pyridin-3-yl)butanamide], `CN(C)[C@H](CNC(=O)C[C@@H](c1cccnc1)C1(C(F)(F)F)CC1)Cc1ccc2[nH]ncc2c1` [Compound 237, (S)-N-((S)-2-(dimethylamino)-3-(1H-indazol-5-yl)propyl)-3-(pyridin-3-yl)-3-(1-(trifluoromethyl)cyclopropyl)propanamide] is lower in IC50: over 3000 nM for the first, under 300 nM for the second.

`Cc1ncc([C@@H](CC(=O)NC[C@H](Cc2cc3cn[nH]c3cc2Cl)N(C)C)C2(C(F)(F)F)CC2)cn1` [Compound 233, (R)-N-((S)-3-(6-chloro-H-indazol-5-yl)-2-(dimethylamino)propyl)-3-(2-methylpyrimidin-5-yl)-3-(1-(trifluoromethyl)cyclopropyl) propanamide] and `CN(C)[C@H](CNC(=O)C[C@H](c1ccncc1)C1(C(F)(F)F)CC1)Cc1cc2cn[nH]c2cc1Cl` [Compound 234, (R)-N-((S)-3-(6-chloro-H-indazol-5-yl)-2-(dimethylamino)propyl)-3-(pyridin-4-yl)-3-(1-(trifluoromethyl)cyclopropyl)propanamide] cannot be ordered by IC50: under 300 nM for the first, under 300 nM for the second.

`Cc1cc(O)cc(C)c1C[C@@H](CNC(=O)C1CC1c1ncccn1)N(C)C` (stereo partly drawn) [Compound 248, N-((S)-2-(dimethylamino)-3-(4-hydroxy-2,6-dimethylphenyl)propyl)-2-(pyrimidin-2-yl)cyclopropane-1-carboxamide] and `Cc1cc(O)cc(C)c1C[C@@H](CNC(=O)C[C@H](C)c1ccc(Cl)cc1)N(C)C` [Compound 250, (S)-3-(4-chlorophenyl)-N-((S)-2-(dimethylamino)-3-(4-hydroxy-2,6-dimethylphenyl)propyl)butanamide] fall in the same range of IC50: 300 to 3000 nM for the first, 300 to 3000 nM for the second.
